Blank lines part the entries; values can stand above or below the compound they belong to. The source made the active and inactive calls.
What was measured:
[1] = ADAM10 inhibitors, peptide cleavage, dose response, biochemical, QFRET (AID 743254);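 also: ADAM10 enzyme with the DM2 quenched FRET peptide as substrate; EDANS fluorescence gain as the protease cuts the substrate; inhibitor potency against ADAM10 proteolytic activity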
[2] = molecular target: Disintegrin and metalloproteinase domain-containing protein 17 (Homo sapiens, UniProt P78536); experiment: ADAM17 protease inhibitors, dose response, counter-screen for ADAM10 exosite inhibitor project, biochemical, quenched FRET substrate (AID 743253)
Protein Wnt-3a = Protein Wnt-3a (Mus musculus, UniProt P27467); experiment: SAR analysis of small molecule antagonists of Gli-SUFU in a Wnt3a luminescent reporter assay.; assay type: functional
[3] = HEK293T cytotoxicity, dose response, cytotoxicity control for miR-122 modulator project, cell-based, inhibitor set, cherry-pick, set 2 (AID 720697); assay type: functional
[4] = MITF: Counter assay: A375 proliferation Measured in Cell-Based System Using Plate Reader - 2084-03_Inhibitor_Dose_DryPowder_Activity_Set8.; assay type: functional; conditions: A-375
[5] = TRPM1 promoter luciferase reporter signal decrease, dose response, MITF inhibitor project, cell-based, SK-MEL-5, dry powder, set 8 (AID 624430); assay type: functional
[6] = MITF Orthogonal Assay: SK-MEL-5 CTG Assay Measured in Cell-Based System Using Plate Reader - 2084-02_Inhibitor_Dose_DryPowder_Activity_Set7.; assay type: functional
Caspase-3 = molecular target: T1, Caspase-3 (Homo sapiens, UniProt P42574); experiment: caspase-3 enzyme inhibitors, selectivity check, dose response, selectivity assay for caspase-6 allosteric inhibitor project, biochemical, fluorescence, cherry-picked samples (AID 743291)
T1 sequence (P42574 whole entry): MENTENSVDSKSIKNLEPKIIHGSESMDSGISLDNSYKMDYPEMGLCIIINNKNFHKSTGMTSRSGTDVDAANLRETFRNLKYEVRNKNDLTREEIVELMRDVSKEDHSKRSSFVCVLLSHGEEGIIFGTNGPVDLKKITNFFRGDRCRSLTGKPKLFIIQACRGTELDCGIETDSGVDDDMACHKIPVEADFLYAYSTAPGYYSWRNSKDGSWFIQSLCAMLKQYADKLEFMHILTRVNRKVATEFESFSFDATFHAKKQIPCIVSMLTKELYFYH

Caspase-8 = Caspase-8 (Homo sapiens, UniProt Q14790); experiment: caspase-8 inhibition counter-screen, dose response, selectivity assay for caspase-6 inhibitor project, biochemical, Z-IETD-R110 fluorescence, cherry-picked samples (AID 743294)
Caspase-6 = molecular target: T2, Caspase-6 (Homo sapiens, UniProt P55212); experiment: human caspase-6 inhibitors, dose response, biochemical, VEID-R110 fluorescence, cherry-pick (AID 720632)
T2 sequence (P55212 whole entry): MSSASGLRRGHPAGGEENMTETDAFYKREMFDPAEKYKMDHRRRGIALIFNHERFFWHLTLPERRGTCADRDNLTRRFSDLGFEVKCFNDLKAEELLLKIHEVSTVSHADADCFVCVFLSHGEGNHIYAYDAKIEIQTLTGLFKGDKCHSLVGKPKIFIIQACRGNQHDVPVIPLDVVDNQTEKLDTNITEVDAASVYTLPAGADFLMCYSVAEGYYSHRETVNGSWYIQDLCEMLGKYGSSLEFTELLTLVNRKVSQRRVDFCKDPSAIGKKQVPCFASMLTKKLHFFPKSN

[7] = molecular target: T3, Carboxy-terminal domain RNA polymerase II polypeptide A small phosphatase 1 (Homo sapiens, UniProt Q9GZU7); experiment: inhibitors of CTDSP1, concentration-response testing, biochemical assay, absorbance-based, actives from ultra-high-throughput screening (AID 540297); assay type: functional
T3 sequence (Q9GZU7 whole entry): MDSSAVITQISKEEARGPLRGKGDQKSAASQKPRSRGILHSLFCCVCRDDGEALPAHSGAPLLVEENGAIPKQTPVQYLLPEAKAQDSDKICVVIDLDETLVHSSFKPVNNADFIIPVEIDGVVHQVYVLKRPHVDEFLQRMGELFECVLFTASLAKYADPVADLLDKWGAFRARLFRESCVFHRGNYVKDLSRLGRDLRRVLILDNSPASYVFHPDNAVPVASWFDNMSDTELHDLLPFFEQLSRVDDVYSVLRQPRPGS

Cysteine protease ATG4B = molecular target: T4, Cysteine protease ATG4B (Homo sapiens, UniProt Q9Y4P1); assay type: functional;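 also: Fluorescence-based dose-response confirmation assay measuring inhibition of ATG4B activity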
T4 sequence (Q9Y4P1 whole entry): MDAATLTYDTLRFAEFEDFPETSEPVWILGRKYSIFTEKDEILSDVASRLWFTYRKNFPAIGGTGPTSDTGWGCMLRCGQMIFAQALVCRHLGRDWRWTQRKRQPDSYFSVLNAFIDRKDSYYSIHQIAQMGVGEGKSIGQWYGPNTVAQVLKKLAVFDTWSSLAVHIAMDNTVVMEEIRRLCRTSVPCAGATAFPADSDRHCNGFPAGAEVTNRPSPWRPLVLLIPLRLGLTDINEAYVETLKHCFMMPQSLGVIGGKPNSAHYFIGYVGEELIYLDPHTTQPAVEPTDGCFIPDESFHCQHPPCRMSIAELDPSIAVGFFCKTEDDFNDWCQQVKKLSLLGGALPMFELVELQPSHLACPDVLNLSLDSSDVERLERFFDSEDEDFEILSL

Caspase-7 = molecular target: T5, Caspase-7 (Homo sapiens, UniProt P55210); experiment: human caspase-7 inhibitors, dose response, selectivity assay for caspase-6 inhibitor project, biochemical, DEVD-R110 fluorescence, cherry-pick (AID 743295)
T5 sequence (P55210 whole entry): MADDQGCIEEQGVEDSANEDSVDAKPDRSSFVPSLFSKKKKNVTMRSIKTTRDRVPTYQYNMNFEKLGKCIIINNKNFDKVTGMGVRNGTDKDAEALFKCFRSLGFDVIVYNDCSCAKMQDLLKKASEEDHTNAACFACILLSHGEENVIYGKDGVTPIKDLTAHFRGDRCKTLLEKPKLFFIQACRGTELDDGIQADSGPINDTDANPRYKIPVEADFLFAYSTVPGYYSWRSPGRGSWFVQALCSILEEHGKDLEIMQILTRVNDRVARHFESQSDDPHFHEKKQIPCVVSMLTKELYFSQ

Phospholipase A2 = Phospholipase A2 (Homo sapiens, UniProt P04054); assay type: functional;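 also: confirmatory dose-response counterscreen on phospholipase A2, testing hits that came from an ultra-high-throughput screen for ATG4B inhibitors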
Sequence of Phospholipase A2 (P04054 whole entry): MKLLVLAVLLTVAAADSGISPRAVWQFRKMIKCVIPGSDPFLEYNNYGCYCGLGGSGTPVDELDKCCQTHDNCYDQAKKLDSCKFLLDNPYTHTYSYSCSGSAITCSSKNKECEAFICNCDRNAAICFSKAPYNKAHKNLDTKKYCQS

Sequence of Caspase-8 (Q14790 217-374 limits assumed): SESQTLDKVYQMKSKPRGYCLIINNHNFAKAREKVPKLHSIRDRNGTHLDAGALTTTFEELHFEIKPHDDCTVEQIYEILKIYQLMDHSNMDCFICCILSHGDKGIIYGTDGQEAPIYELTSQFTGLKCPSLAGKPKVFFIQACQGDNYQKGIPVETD
Sequence of Caspase-8 (Q14790 385-479 limits assumed): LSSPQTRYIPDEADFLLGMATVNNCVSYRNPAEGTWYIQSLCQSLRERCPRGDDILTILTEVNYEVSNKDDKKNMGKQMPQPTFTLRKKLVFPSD
Sequence of Disintegrin and metalloproteinase domain-containing protein 17 (P78536 whole entry, the tested form may be a part): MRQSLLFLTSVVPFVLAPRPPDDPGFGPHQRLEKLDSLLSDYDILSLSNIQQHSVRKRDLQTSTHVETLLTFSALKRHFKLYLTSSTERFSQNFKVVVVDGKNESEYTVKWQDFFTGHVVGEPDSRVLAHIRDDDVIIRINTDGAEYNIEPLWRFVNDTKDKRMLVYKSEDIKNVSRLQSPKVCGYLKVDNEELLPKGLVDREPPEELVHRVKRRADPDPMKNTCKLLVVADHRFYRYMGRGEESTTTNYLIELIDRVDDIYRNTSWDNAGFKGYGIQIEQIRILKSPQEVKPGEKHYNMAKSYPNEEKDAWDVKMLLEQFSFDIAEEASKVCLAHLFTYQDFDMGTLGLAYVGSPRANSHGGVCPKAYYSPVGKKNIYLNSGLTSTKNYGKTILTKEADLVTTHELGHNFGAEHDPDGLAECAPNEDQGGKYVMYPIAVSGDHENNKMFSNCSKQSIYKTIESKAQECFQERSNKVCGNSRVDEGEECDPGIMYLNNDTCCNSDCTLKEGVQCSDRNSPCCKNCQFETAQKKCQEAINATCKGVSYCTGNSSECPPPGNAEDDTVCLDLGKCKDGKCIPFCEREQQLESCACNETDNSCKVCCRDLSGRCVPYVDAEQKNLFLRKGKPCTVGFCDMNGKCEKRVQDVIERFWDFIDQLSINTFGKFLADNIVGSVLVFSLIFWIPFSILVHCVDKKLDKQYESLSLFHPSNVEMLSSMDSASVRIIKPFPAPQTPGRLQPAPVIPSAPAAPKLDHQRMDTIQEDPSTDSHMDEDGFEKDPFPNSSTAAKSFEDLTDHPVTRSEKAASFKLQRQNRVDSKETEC
Sequence of Protein Wnt-3a (P27467 whole entry): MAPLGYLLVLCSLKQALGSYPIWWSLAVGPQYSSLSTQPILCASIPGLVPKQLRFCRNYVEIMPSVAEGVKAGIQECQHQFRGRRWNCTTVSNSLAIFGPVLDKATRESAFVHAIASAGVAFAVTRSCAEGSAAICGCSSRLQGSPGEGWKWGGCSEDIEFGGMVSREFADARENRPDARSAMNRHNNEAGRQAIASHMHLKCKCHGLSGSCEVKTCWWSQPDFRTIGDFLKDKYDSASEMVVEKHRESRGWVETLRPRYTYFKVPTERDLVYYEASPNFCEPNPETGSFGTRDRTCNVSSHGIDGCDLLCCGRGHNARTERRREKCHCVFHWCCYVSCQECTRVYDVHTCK

Structure (SMILES): C/C=C/c1ccc([C@@H]2[C@@H](CO)N[C@@H]2CN(CC)C(=O)CN2CCOCC2)cc1
- AC50 [3]: 431 nM (active)

Structure (SMILES): CC(C)N1CCN(C2=C(Nc3ccc(Cl)cc3)C(=O)c3ccccc3C2=O)CC1
- AC50 [4]: 54.7 µM (active)
- AC50 [5]: 2 µM (active)
- AC50 [6]: 10.5 µM (active)

Results, then the compound that gave them:

- IC50 [1]: > 7.72 µM (active)
- IC50 [2]: > 69.5 µM (inactive)
Structure (SMILES): CN(C)c1ccc(C(CNS(=O)(=O)c2ccc(F)c(F)c2)c2c[nH]c3ccccc23)cc1 (centres undefined)

- IC50 (Protein Wnt-3a): > 21.8 µM (inactive)
Structure (SMILES): O=C(Nc1cc(N2CCCCC2)ncn1)c1ccc(Cl)cc1

- AC50 (Caspase-3): 38.7 µM (active)
- AC50 (Caspase-8): 43.9 µM (active)
- AC50 (Caspase-6): 440 nM (active)
- IC50 [7]: 9.39 µM (active)
- IC50 (Cysteine protease ATG4B): 5.65 µM (active)
- AC50 (Caspase-7): > 70 µM (inactive)
- IC50 (Phospholipase A2): 1.95 µM (active)
Structure (SMILES): O=c1oc(-c2ccccc2)nc2sc3c(c12)CCC3

From ChEMBL document CHEMBL1201862, “PubChem BioAssay data set” (2004)
